Counter-ions that a name gives are not always drawn.
Test system: MDA-231 cancer cells
Experiment: Inhibition of proliferation assay: cell confluence (IncuCyte live cell imaging)
Assay type: cell-based
Details: compound tested at 10 μM, images every 3 h over 4-5 d, relative confluence normalised to time zero
Description: Inhibition of Proliferation Assay
The confluence value is a surrogate for cell proliferation and growth. The value is expressed as a percent confluence, which represents the fraction of culture dish-surface that is occupied by cells. As the number of cells in the dish increases over time due to proliferation, so will their coverage of that surface increase. Expansion of the cell population on the cell culture-dish surface and confluence have mostly a linear relationship until the cells on the plate surface begin to reach saturation or maximum density.
Confluence is determined based on image analysis. Image based software can identify objects in the image field base on changes to pixel density in a grey scale image. The software can then assign a mask to those pixels within the object. Objects can be ‘gated’ out based on size and shape. To determine cell confluence, images of cells are first masked as objects. The surface area of the image that is masked is measured and compared to the total surface area of the culture dish surface to obtain a percent confluence.
MDA-231 cancer cells were obtained from ATCC. Cells were cultured in Dulbecco's Modified Eagle Medium (DMEM) supplemented with 10% Fetal Bovine Serum (FBS), 2 mM Glutamax, 1 mM Non Essential Amino Acid (NEAA) solution and 1 mM sodium pyruvate. […] Final DMSO concentrations were […]. Images were acquired with an IncuCyte Live Cell Imaging microscopy (Essen Bioscience) at every 3 h under cell culture conditions with 10 OX objective over 4-5 d. Cell confluence was calculated from one field of view per well using the IncuCyte in-built algorithm. Relative confluence values were obtained by normalising each value to the time zero value in each sample.

Structure (SMILES) | % Confluence [%]
C[C@H]1c2ccc(NC(=O)CCCCCC[P+](c3ccccc3)(c3ccccc3)c3ccccc3)c(O)c2C(=O)C2=C(O)[C@]3(O)C(=O)C(C(N)=O)=C(O)[C@@H](N(C)C)[C@@H]3[C@@H](O)[C@@H]21.[Cl-] [Example 19] | 22.4
C[C@H]1c2c(NC(=O)CCNC(=O)CCCCCCC[P+](c3ccccc3)(c3ccccc3)c3ccccc3)ccc(O)c2C(=O)C2=C(O)[C@]3(O)C(=O)C(C(N)=O)=C(O)[C@@H](N(C)C)[C@@H]3[C@@H](O)[C@@H]21 [Example 15, {7-[(2-{[(6aS,10S,10aR,11S,11aR,12R)-8-carbamoyl-10-(dimethylamino)-4,6,6a,9,11-pentahydroxy-12-methyl-5,7-dioxo-5,6a,7,10,10a,11,11a,12-octahydrotetracen-1-yl]carbamoyl}ethyl)carbamoyl}heptyl}triphenylphosphonium trifluoroacetate] | 112.8
C[C@H]1c2c(NC(=O)CCCCCCCCC[P+](c3ccccc3)(c3ccccc3)c3ccccc3)ccc(O)c2C(=O)C2=C(O)[C@]3(O)C(=O)C(C(N)=O)=C(O)[C@@H](N(C)C)[C@@H]3[C@@H](O)[C@@H]21 [Example 14, (9-{[(6aS,10S,10aR,11 S,11 aR,12R)-8-carbamoyl-10-(dimethylamino)-4,6,6a,9,11-pentahydroxy-12-methyl-5,7-dioxo-5,6a,7,10,10a,11,11a,12-octahydrotetracen-1-yl]carbamoyl}nonyl)triphenylphosphonium trifluoroacetate] | 87.9
C[C@H]1c2ccc(CNC(=O)CCCCCCC[P+](c3ccccc3)(c3ccccc3)c3ccccc3)c(O)c2C(=O)C2=C(O)[C@]3(O)C(=O)C(C(N)=O)=C(O)[C@@H](N(C)C)[C@@H]3[C@@H](O)[C@@H]21 [Example 17, trifluoroacetate] | 79.4
C[C@H]1c2ccc(NC(=O)CCNC(=O)CCCC[P+](c3ccccc3)(c3ccccc3)c3ccccc3)c(O)c2C(=O)C2=C(O)[C@]3(O)C(=O)C(C(N)=O)=C(O)[C@@H](N(C)C)[C@@H]3[C@@H](O)[C@@H]21 [Example 12, {4-[(2-{[(5R,5aR,6S,6aR,7S,10aS)-9-carbamoyl-7-(dimethylamino)-1,6,8,10a,11-pentahydroxy-5-methyl-10,12-dioxo-5,5a,6,6a,7,10,10a,12-octahydrotetracen-2-yl]carbamoyl}ethyl)carbamoyl]butyl}triphenylphosphonium trifluoroacetate] | 91.9
C[C@H]1c2cccc(O)c2C(=O)C2=C(O)[C@]3(O)C(=O)C(C(N)=O)=C(O)[C@@H](N(C)C)[C@@H]3[C@@H](O)[C@@H]21 [Doxycycline, reference compound] | 98.7
C[C@H]1c2ccc(CNC(=O)CCCCC[P+](c3ccccc3)(c3ccccc3)c3ccccc3)c(O)c2C(=O)C2=C(O)[C@]3(O)C(=O)C(C(N)=O)=C(O)[C@@H](N(C)C)[C@@H]3[C@@H](O)[C@@H]21 [Example 16, trifluoroacetate] | 116.3
C[C@H]1c2ccc(NC(=O)CNC(=O)CCC[P+](c3ccccc3)(c3ccccc3)c3ccccc3)c(O)c2C(=O)C2=C(O)[C@]3(O)C(=O)C(C(N)=O)=C(O)[C@@H](N(C)C)[C@@H]3[C@@H](O)[C@@H]21 [Example 9, {3-[({[(5R,5aR,6S,6aR,7S,10aS)-9-carbamoyl-7-(dimethylamino)-1,6,8,10a,11-pentahydroxy-5-methyl-10,12-dioxo-5,5a,6,6a,7,10,10a,12-octahydrotetracen-2-yl]carbamoyl}methyl)carbamoyl]propyl}triphenylphosphonium trifluoroacetate] | 83
C[C@H]1c2ccc(NC(=O)CCCCCCCCC[P+](c3ccccc3)(c3ccccc3)c3ccccc3)c(O)c2C(=O)C2=C(O)[C@]3(O)C(=O)C(C(N)=O)=C(O)[C@@H](N(C)C)[C@@H]3[C@@H](O)[C@@H]21 [Example 7, (9-{[(5R,5aR,6S,6aR,7S,10aS)-9-carbamoyl-7-(dimethylamino)-1,6,8,10a,11-pentahydroxy-5-methyl-10,12-dioxo-5,5a,6,6a,7,10,10a,12-octahydrotetracen-2-yl]carbamoyl}nonyl)triphenylphosphonium trifluoroacetate] | 38.7
C[C@H]1c2ccc(CNC(=O)CCCCCCCCC[P+](c3ccccc3)(c3ccccc3)c3ccccc3)c(O)c2C(=O)C2=C(O)[C@]3(O)C(=O)C(C(N)=O)=C(O)[C@@H](N(C)C)[C@@H]3[C@@H](O)[C@@H]21 [Example 5, trifluoroacetate] | 37
C[C@H]1c2ccc(NC(=O)CCCCCCCCCCC[P+](c3ccccc3)(c3ccccc3)c3ccccc3)c(O)c2C(=O)C2=C(O)[C@]3(O)C(=O)C(C(N)=O)=C(O)[C@@H](N(C)C)[C@@H]3[C@@H](O)[C@@H]21 [Example 1, (11-{[(5R,5aR,6S,6aR,7S,10aS)-9-carbamoyl-7-(dimethylamino)-1,6,8,10a,11-pentahydroxy-5-methyl-10,12-dioxo-5,5a,6,6a,7,10,10a,12-octahydrotetracen-2-yl]carbamoyl}undecyl)triphenylphosphonium formate] | 27.1
C[C@H]1c2ccc(NC(=O)CNC(=O)CCCCC[P+](c3ccccc3)(c3ccccc3)c3ccccc3)c(O)c2C(=O)C2=C(O)[C@]3(O)C(=O)C(C(N)=O)=C(O)[C@@H](N(C)C)[C@@H]3[C@@H](O)[C@@H]21 [Example 8, {5-[({[(5R,5aR,6S,6aR,7S,10aS)-9-carbamoyl-7-(dimethylamino)-1,6,8,10a,11-pentahydroxy-5-methyl-10,12-dioxo-5,5a,6,6a,7,10,10a,12-octahydrotetracen-2-yl]carbamoyl}methyl)carbamoyl]pentyl}triphenylphosphonium trifluoroacetate] | 96.2
C[C@H]1c2ccc(NC(=O)CCCCCCCCCC[P+](c3ccccc3)(c3ccccc3)c3ccccc3)c(O)c2C(=O)C2=C(O)[C@]3(O)C(=O)C(C(N)=O)=C(O)[C@@H](N(C)C)[C@@H]3[C@@H](O)[C@@H]21 [Example 6, (10-{[(5R,5aR,6S,6aR,7S,10aS)-9-carbamoyl-7-(dimethylamino)-1,6,8,10a,11-pentahydroxy-5-methyl-10,12-dioxo-5,5a,6,6a,7,10,10a,12-octahydrotetracen-2-yl]carbamoyl}decyl)triphenylphosphonium trifluoroacetate] | 36.8
C[C@H]1c2ccc(NC(=O)CCCCCCCC[P+](c3ccccc3)(c3ccccc3)c3ccccc3)c(O)c2C(=O)C2=C(O)[C@]3(O)C(=O)C(C(N)=O)=C(O)[C@@H](N(C)C)[C@@H]3[C@@H](O)[C@@H]21.[Cl-] [Example 20] | 25.2
C[C@H]1c2c(NC(=O)CCCCCCC[P+](c3ccccc3)(c3ccccc3)c3ccccc3)ccc(O)c2C(=O)C2=C(O)[C@]3(O)C(=O)C(C(N)=O)=C(O)[C@@H](N(C)C)[C@@H]3[C@@H](O)[C@@H]21 [Example 4, (7-{[(6aS,10S,10aR,11S,11aR,12R)-8-carbamoyl-10-(dimethylamino)-4,6,6a,9,11-pentahydroxy-12-methyl-5,7-dioxo-5,6a,7,10,10a,11,11a,12-octahydrotetracen-1-yl]carbamoyl}heptyl)triphenylphosphonium trifluoroacetate] | 124.3
C[C@H]1c2ccc(NC(=O)CCNC(=O)CCCCCCCCC[P+](c3ccccc3)(c3ccccc3)c3ccccc3)c(O)c2C(=O)C2=C(O)[C@]3(O)C(=O)C(C(N)=O)=C(O)[C@@H](N(C)C)[C@@H]3[C@@H](O)[C@@H]21 [Example 11, {9-[(2-{[(5R,5aR,6S,6aR,7S,10aS)-9-carbamoyl-7-(dimethylamino)-1,6,8,10a,11-pentahydroxy-5-methyl-10,12-dioxo-5,5a,6,6a,7,10,10a,12-octahydrotetracen-2-yl]carbamoyl}ethyl)carbamoyl]nonyl}triphenylphosphonium trifluoroacetate] | 45
C[C@H]1c2ccc(NC(=O)CCNC(=O)CCCCCCC[P+](c3ccccc3)(c3ccccc3)c3ccccc3)c(O)c2C(=O)C2=C(O)[C@]3(O)C(=O)C(C(N)=O)=C(O)[C@@H](N(C)C)[C@@H]3[C@@H](O)[C@@H]21 [Example 10, {7-[(2-{[(5R,5aR,6S,6aR,7S,10aS)-9-carbamoyl-7-(dimethylamino)-1,6,8,10a,11-pentahydroxy-5-methyl-10,12-dioxo-5,5a,6,6a,7,10,10a,12-octahydrotetracen-2-yl]carbamoyl}ethyl)carbamoyl]heptyl}triphenylphosphonium trifluoroacetate] | 92.2
C[C@H]1c2ccc(NC(=O)CCCCCCC[P+](c3ccccc3)(c3ccccc3)c3ccccc3)c(O)c2C(=O)C2=C(O)[C@]3(O)C(=O)C(C(N)=O)=C(O)[C@@H](N(C)C)[C@@H]3[C@@H](O)[C@@H]21 [Example 2, (7-{[(5R,5aR,6S,6aR,7S,10aS)-9-carbamoyl-7-(dimethylamino)-1,6,8,10a,11-pentahydroxy-5-methyl-10,12-dioxo-5,5a,6,6a,7,10,10a,12-octahydrotetracen-2-yl]carbamoyl}heptyl)triphenylphosphonium formate] | 81.2

Same assay, conditions: compound tested at 50 μM, images every 3 h over 4-5 d, relative confluence normalised to time zero

Structure (SMILES) | % Confluence [%]
C[C@H]1c2cccc(O)c2C(=O)C2=C(O)[C@]3(O)C(=O)C(C(N)=O)=C(O)[C@@H](N(C)C)[C@@H]3[C@@H](O)[C@@H]21 [Doxycycline, reference compound] | 91

From patent US11098073B2, “Triphenylphosphonium-tethered tetracyclines for use in treating cancer” (Oxford University Innovation Limited, priority 2017, dated 2021)
